Like-named read-outs stand apart in the source and are kept apart here.
Target: T1, human DP2 (Homo sapiens, UniProt Q9Y5Y4)
T1 construct: expressed in transfected cells; membranes prepared
T1 sequence (Q9Y5Y4 1-395): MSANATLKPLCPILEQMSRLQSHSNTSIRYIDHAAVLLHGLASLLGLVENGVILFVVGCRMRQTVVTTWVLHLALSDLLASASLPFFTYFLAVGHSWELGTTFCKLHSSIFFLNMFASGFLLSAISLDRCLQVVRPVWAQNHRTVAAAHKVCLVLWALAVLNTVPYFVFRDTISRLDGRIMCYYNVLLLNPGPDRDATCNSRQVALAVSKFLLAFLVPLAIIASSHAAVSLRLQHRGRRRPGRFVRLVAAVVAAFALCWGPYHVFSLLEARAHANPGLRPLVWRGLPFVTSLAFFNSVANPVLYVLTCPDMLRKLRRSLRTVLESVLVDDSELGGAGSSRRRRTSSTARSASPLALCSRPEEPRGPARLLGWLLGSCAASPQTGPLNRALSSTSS
Test: DP-2 binding inhibition assay (3H-PGD2, membranes of DP2-expressing K562 cells)
How it was run: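 Membranes from K562 clones stably expressing human DP2 were incubated 60 min at room temperature with 3H-PGD2 and compound, with 0.1% BSA, 1% HSA or 4% HSA, then filtered and counted.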

[1] = 4% HSA, read-out: EC50 (nM) 4% HSA

Row | EC50 [1] [nM] | EC50 (0.1% BSA, read-out: EC50 (nM) 0.1% BSA) [nM] | SMILES
1 | 83.4 |  | O=C(Nc1cccc(-c2ccc(Cl)cc2)n1)c1ccc(Oc2c(Cl)cc3c(c2Cl)OCCC3C(=O)O)cc1 (stereo not shown) [Example 143, Sodium 6,8-dichloro-7-(4-(6-(4-chlorophenyl)pyridin-2-ylcarbamoyl)phenoxy)-chroman-4-carboxylate]
2 | 299 |  | O=C(Nc1ccc2cc(Cl)ccc2n1)c1ccc(Oc2c(Cl)cc3c(c2Cl)OCCC3C(=O)O)cc1 (stereo not shown) [Example 144, Sodium 6,8-dichloro-7-(4-(6-chloroquinolin-2-ylcarbamoyl)phenoxy)chroman-4-carboxylate]
3 | 160 |  | O=C(Nc1ccc(-c2cccc(Cl)c2)nc1)c1ccc(Oc2c(Cl)cc3c(c2Cl)OCCC3C(=O)O)cc1 (stereo not shown) [Example 145, Sodium 6,8-dichloro-7-(4-(6-(3-chlorophenyl)pyridin-3-ylcarbamoyl)phenoxy)-chroman-4-carboxylate]
4 | 728 |  | N#Cc1cc2c(cc1Oc1ccc(C(=O)Nc3nnc(-c4ccccc4)s3)cc1)OCCC2C(=O)O (stereo not shown) [Example 146, 6-Cyano-7-(4-(5-phenyl-1,3,4-thiadiazol-2-ylcarbamoyl)phenoxy)chroman-4-carboxylic acid]
5 | 3440 |  | N#Cc1cc2c(cc1Oc1ccc(C(=O)Nc3nnc(-c4ccc(Cl)cc4)s3)cc1)OCCC2C(=O)O (stereo not shown) [Example 147, 7-(4-(5-(4-chlorophenyl)-1,3,4-thiadiazol-2-ylcarbamoyl)phenoxy)-6-cyanochroman-4-carboxylic acid]
6 | 5460 |  | O=C(Nc1nnc(-c2ccccc2)s1)c1ccc(Oc2cc3c(cc2Cl)C(C(=O)O)CCO3)cc1 (stereo not shown) [Example 148, 6-chloro-7-(4-(5-phenyl-1,3,4-thiadiazol-2-ylcarbamoyl)phenoxy)chroman-4-carboxylic acid]
7 | 1660 |  | O=C(Nc1nnc(-c2ccc(Cl)cc2)s1)c1ccc(Oc2cc3c(cc2Cl)C(C(=O)O)CCO3)cc1 (stereo not shown) [Example 149, 6-chloro-7-(4-(5-(4-chlorophenyl)-1,3,4-thiadiazol-2-ylcarbamoyl)phenoxy)chroman-4-carboxylic acid]
8 | 32.7 |  | CC(C)(C)c1csc(NC(=O)c2ccc(Oc3cc4c(cc3Cl)C(C(=O)O)CCO4)cc2)n1 (stereo not shown) [Example 150, 7-(4-(4-tert-butylthiazol-2-ylcarbamoyl)phenoxy)-6-chlorochroman-4-carboxylic acid]
9 | 473 |  | Cc1nc(NC(=O)c2ccc(Oc3cc4c(cc3Cl)C(C(=O)O)CCO4)cc2)sc1C(C)(C)C (stereo not shown) [Example 151, 7-(4-(5-tert-butyl-4-methylthiazol-2-ylcarbamoyl)phenoxy)-6-chlorochroman-4-carboxylic acid]
10 | 45.3 |  | O=C(Nc1nc(-c2ccc(Cl)cc2)cs1)c1ccc(Oc2cc3c(cc2Cl)C(C(=O)O)CCO3)cc1 (stereo not shown) [Example 152, 6-chloro-7-(4-(4-(4-chlorophenyl)thiazol-2-ylcarbamoyl)phenoxy)chroman-4-carboxylic acid]
11 | 67.5 |  | O=C(Nc1nc(-c2ccc(F)cc2)cs1)c1ccc(Oc2cc3c(cc2Cl)C(C(=O)O)CCO3)cc1 (stereo not shown) [Example 153, 6-chloro-7-(4-(4-(4-fluorophenyl)thiazol-2-ylcarbamoyl)phenoxy)chroman-4-carboxylic acid]
12 | 59 |  | O=C(Nc1nc(-c2ccc(F)c(F)c2)cs1)c1ccc(Oc2cc3c(cc2Cl)C(C(=O)O)CCO3)cc1 (stereo not shown) [Example 154, 6-chloro-7-(4-(4-(3,4-difluorophenyl)thiazol-2-ylcarbamoyl)phenoxy)chroman-4-carboxylic acid]
13 | 68.9 |  | O=C(Nc1nc(-c2ccc(F)cc2F)cs1)c1ccc(Oc2cc3c(cc2Cl)C(C(=O)O)CCO3)cc1 (stereo not shown) [Example 155, 6-chloro-7-(4-(4-(2,4-difluorophenyl)thiazol-2-ylcarbamoyl)phenoxy)chroman-4-carboxylic acid]
14 | 157 |  | CC(C)c1csc(NC(=O)c2ccc(Oc3cc4c(cc3Cl)C(C(=O)O)CCO4)cc2)n1 (stereo not shown) [Example 156, 6-chloro-7-(4-(4-isopropylthiazol-2-ylcarbamoyl)phenoxy)chroman-4-carboxylic acid]
15 | 16.6 |  | O=C(Nc1nc(-c2cccc(Cl)c2)cs1)c1ccc(Oc2cc3c(cc2Cl)C(C(=O)O)CCO3)cc1 (stereo not shown) [Example 157, 6-chloro-7-(4-(4-(3-chlorophenyl)thiazol-2-ylcarbamoyl)phenoxy)chroman-4-carboxylic acid]
16 | 155 |  | CC(C)(C)c1cc(NC(=O)c2ccc(Oc3cc4c(cc3Cl)C(C(=O)O)CCO4)cc2)no1 (stereo not shown) [Example 158, 7-(4-(5-tert-butylisoxazol-3-ylcarbamoyl)phenoxy)-6-chlorochroman-4-carboxylic acid]
17 | 437 |  | CCc1oc(NC(=O)c2ccc(Oc3cc4c(cc3Cl)C(C(=O)O)CCO4)cc2)nc1-c1ccccc1 (stereo not shown) [Example 159, 6-chloro-7-(4-(5-ethyl-4-phenyloxazol-2-ylcarbamoyl)phenoxy)chroman-4-carboxylic acid]

Row | EC50 [1] [nM] | EC50 (0.1% BSA, read-out: EC50 (nM) 0.1% BSA) [nM] | SMILES
18 | 849 |  | CC(C)c1nsc(NC(=O)c2ccc(Oc3cc4c(cc3Cl)C(C(=O)O)CCO4)cc2)n1 (stereo not shown) [Example 160, 6-chloro-7-(4-(3-isopropyl-1,2,4-thiadiazol-5-ylcarbamoyl)phenoxy)chroman-4-carboxylic acid]
19 | 74.6 |  | O=C(Nc1cc(-c2ccc(Cl)cc2)no1)c1ccc(Oc2cc3c(cc2Cl)C(C(=O)O)CCO3)cc1 (stereo not shown) [Example 161, 6-chloro-7-(4-(3-(4-chlorophenyl)isoxazol-5-ylcarbamoyl)phenoxy)chroman-4-carboxylic acid]
20 | 1600 |  | CC(C)(C)c1cc(NC(=O)c2ccc(Oc3cc4c(cc3Cl)C(C(=O)O)CCO4)cc2)on1 (stereo not shown) [Example 162, 7-(4-(3-tert-butylisoxazol-5-ylcarbamoyl)phenoxy)-6-chlorochroman-4-carboxylic acid]
21 | 564 |  | O=C(Nc1nc(-c2ccccc2)ns1)c1ccc(Oc2cc3c(cc2Cl)C(C(=O)O)CCO3)cc1 (stereo not shown) [Example 163, 6-chloro-7-(4-(3-phenyl-1,2,4-thiadiazol-5-ylcarbamoyl)phenoxy)chroman-4-carboxylic acid]
22 | 143 |  | O=C(Nc1cnn(-c2cccc(Cl)c2)c1)c1ccc(Oc2cc3c(cc2Cl)C(C(=O)O)CCO3)cc1 (stereo not shown) [Example 164, Sodium 6-chloro-7-(4-(1-(3-chlorophenyl)-1H-pyrazol-4-ylcarbamoyl)phenoxy)chroman-4-carboxylate]
23 | 187 |  | O=C(Nc1cnn(-c2cccc(Cl)c2)c1)c1ccc(Oc2c(Cl)cc3c(c2Cl)OCCC3C(=O)O)cc1 (stereo not shown) [Example 165, Sodium 6,8-dichloro-7-(4-(1-(3-chlorophenyl)-1H-pyrazol-4-ylcarbamoyl)phenoxy)chroman-4-carboxylate]
24 | 85.1 |  | O=C(Nc1ccn(-c2ccc(F)c(F)c2)n1)c1ccc(Oc2cc3c(cc2Cl)C(C(=O)O)CCO3)cc1 (stereo not shown) [Example 166, 6-chloro-7-(4-(1-(3,4-difluorophenyl)-1H-pyrazol-3-ylcarbamoyl)phenoxy)chroman-4-carboxylic acid]
25 | 46.8 |  | O=C(Nc1ccn(-c2ccc(F)c(Cl)c2)n1)c1ccc(Oc2cc3c(cc2Cl)C(C(=O)O)CCO3)cc1 (stereo not shown) [Example 167, 6-chloro-7-(4-(1-(3-chloro-4-fluorophenyl)-1H-pyrazol-3-ylcarbamoyl)phenoxy)chroman-4-carboxylic acid]
26 | 112 |  | O=C(Nc1ccn(-c2ccc(F)cc2F)n1)c1ccc(Oc2cc3c(cc2Cl)C(C(=O)O)CCO3)cc1 (stereo not shown) [Example 168, 6-chloro-7-(4-(1-(2,4-difluorophenyl)-1H-pyrazol-3-ylcarbamoyl)phenoxy)chroman-4-carboxylic acid]
27 | 76 |  | O=C(Nc1ccn(-c2cccc(Cl)c2F)n1)c1ccc(Oc2cc3c(cc2Cl)C(C(=O)O)CCO3)cc1 (stereo not shown) [Example 169, 6-chloro-7-(4-(1-(3-chloro-2-fluorophenyl)-1H-pyrazol-3-ylcarbamoyl)phenoxy)chroman-4-carboxylic acid]
28 | 292 |  | COc1ccc(-n2ccc(NC(=O)c3ccc(Oc4cc5c(cc4Cl)C(C(=O)O)CCO5)cc3)n2)cc1 (stereo not shown) [Example 170, 6-chloro-7-(4-(1-(4-methoxyphenyl)-1H-pyrazol-3-ylcarbamoyl)phenoxy)chroman-4-carboxylic acid]
29 | 97.5 |  | O=C(Nc1ccn(-c2ccccc2)n1)c1ccc(Oc2cc3c(cc2Cl)C(C(=O)O)CCO3)cc1 (stereo not shown) [Example 171]
30 | 55 |  | O=C(Nc1ccn(-c2cccc(Cl)c2)n1)c1ccc(Oc2cc3c(cc2Cl)C(C(=O)O)CCO3)cc1 (stereo not shown) [Example 172, 6-chloro-7-(4-(1-(3-chlorophenyl)-1H-pyrazol-3-ylcarbamoyl)phenoxy)chroman-4-carboxylic acid]
31 | 22.9 |  | O=C(Nc1ccn(-c2ccc(Cl)c(Cl)c2)n1)c1ccc(Oc2cc3c(cc2Cl)C(C(=O)O)CCO3)cc1 (stereo not shown) [Example 173, 6-chloro-7-(4-(1-(3,4-dichlorophenyl)-1H-pyrazol-3-ylcarbamoyl)phenoxy)chroman-4-carboxylic acid]
32 | 47.1 |  | O=C(Nc1ccn(-c2ccccc2Cl)n1)c1ccc(Oc2cc3c(cc2Cl)C(C(=O)O)CCO3)cc1 (stereo not shown) [Example 174, 6-chloro-7-(4-(1-(2-chlorophenyl)-1H-pyrazol-3-ylcarbamoyl)phenoxy)chroman-4-carboxylic acid]
33 | 80.7 |  | O=C(Nc1ccn(-c2ccc(Cl)cc2)n1)c1ccc(Oc2cc3c(cc2Cl)C(C(=O)O)CCO3)cc1 (stereo not shown) [Example 175, 6-chloro-7-(4-(1-(4-chlorophenyl)-1H-pyrazol-3-ylcarbamoyl)phenoxy)chroman-4-carboxylic acid]
34 |  | 62.7 | Cc1cnc(NC(=O)c2ccc(Oc3cc4c(cc3C#N)C(C(=O)O)CCO4)cc2)s1 (stereo not shown) [Example 176, 6-cyano-7-(4-(5-methylthiazol-2-ylcarbamoyl)phenoxy)chroman-4-carboxylic acid]
